This is an account of results in patent US20030191323A1, “Hypoglycemic agent” (Ajinomoto Co., Inc., priority 2000, published 2003).

Usually melting point stands for the temperature of the solid-liquid transition.

The subject of one data set is Rat skeletal muscle cell strain L6 cells. Briefly: Effect of accelerating the glucose uptake in cultured skeletal muscle cells ([3H]-2-deoxyglucose uptake). Type of data set: cell-based. To be noted: 10 min, 10 μM compound, cultured overnight, 2DG uptake in L6 myotubes, 37° C. 10 minutes, compared with the control group. On the procedure: Effect of accelerating the glucose uptake in cultured skeletal muscle cells: Method: Rat skeletal muscle cell strain “L6 cells” in a confluent state was cultured in DME medium containing 2% of fetal calf serum for one week to differentiate into myotubes. The medium was replaced with the DME medium containing a compound synthesized in each of the above Reference Examples. After culturing overnight followed by the thorough washing with HEPES buffer solution, an HEPES buffer solution containing 37 kBq/ml of 10 μM [3H]-2-deoxyglucose (2DG) was added thereto. After the culture at 37° C. for 10 minutes, the radioactivity of 2DG transmigrated into the cells was determined. The effect (%) of each compound on 2DG uptake was determined as compared with that in the control group.
With `CC/C=C/CC(=O)NS(=O)(=O)c1ccccc1NC(=O)c1ccc(C#Cc2ccccc2)cc1` [compound 54, Trans-N-[2-(4-phenylethynylbenzamido)benzenesulfonyl]-3-hexenamide], the activity at 10 µM was found to be 118%. Consider `CCCCCC(=O)NS(=O)(=O)c1ccccc1NC(=O)c1cccc(OCc2ccc([N+](=O)[O-])cc2)c1` [compound 26, N-[2-[3-(4-Nitrobenzyloxy)benzamido]benzenesulfonyl]hexanamide], for which the activity at 10 µM amounted to 134%. As for `CC(C)(C)C(=O)NS(=O)(=O)c1ccccc1NC(=O)c1ccc(C#Cc2ccccc2)cc1` [compound 51, N-[2-(4-Phenylethynylbenzamido)benzenesulfonyl]pivalamide], the activity at 10 µM was determined as 225%. As to `CCCCCC(=O)NS(=O)(=O)c1ccccc1NC(=O)c1cccc(OCc2ccc(OC)cc2)c1` [compound 30, N-[2-[3-(4-Methoxybenzyloxy)benzamido]benzenesulfonyl]hexanamide], the activity at 10 µM amounted to 131%.

As for `CCCCCC(=O)NS(=O)(=O)c1ccccc1NC(=O)c1cccc(OCC2CCCCC2)c1` [compound 34, N-[2-(3-cyclohexylmethoxybenzamido)benzenesulfonyl]hexanamide], the activity at 10 µM worked out at 145%.

Test system in another data set: not given
Experiment: not given
Details: not given
On to `CC(C)=CC(=O)NS(=O)(=O)c1ccccc1NC(=O)c1ccc(C#Cc2ccccc2)cc1` [compound 52, 3-Methyl-N-[2-(4-phenylethynylbenzamido)benzenesulfonyl]-2-butenamide], for which the melting point lay within 187 to 188 °C. The same measure, in the same setting: with `CCCCCCCCCC(=O)NS(=O)(=O)c1ccccc1NC(=O)c1cccc(OCC2CCCCC2)c1` [compound 35, N-[2-(3-Cyclohexylmethoxybenzamido)benzenesulfonyl]decanamide] the figure was 124 to 127 °C; with `CCCCCCCOc1cccc(C(=O)Nc2ccccc2S(=O)(=O)NC(=O)CCCCC)c1` [compound 45, N-[2-(3-Heptyloxybenzamido)benzenesulfonyl]hexanamide], 200 to 201 °C; with `CCCCNC(=O)NS(=O)(=O)c1ccccc1NC(=O)c1cccc(OCc2ccccc2)c1`, 177 to 178 °C. For `CCCCCCCOc1cccc(C(=O)Nc2ccccc2S(=O)(=O)NC(C)=O)c1` [compound 44, N-[2-(3-Heptyloxybenzamido)benzenesulfonyl]acetamide], the melting point fell in the range of 194 to 195 °C. `CC(=O)NS(=O)(=O)c1ccccc1NC(=O)c1ccc(C#Cc2ccccc2)cc1` [compound 48, N-[2-(4-Phenylethynylbenzamido)benzenesulfonyl]acetamide]: the melting point lay in the range of 214 to 215 °C. `CCCCCCCCCC(=O)NS(=O)(=O)c1ccccc1NC(=O)c1cccc(OCc2ccc(Cl)cc2)c1` [compound 23, N-[2-[3-(4-Chlorobenzyloxy)benzamido]benzenesulfonyl]decanamide] had a melting point of 159 to 161 °C. On the same count and under the same terms, the result for `CC(=O)NS(=O)(=O)c1ccccc1NC(=O)c1cccc(OCc2ccc(C(C)(C)C)cc2)c1` [compound 36, N-[2-[3-(4-t-Butylbenzyloxy)benzamido]benzenesulfonyl]acetamide] reads 190 to 191 °C; that for `O=C(Nc1ccccc1S(=O)(=O)NC(=O)c1cccc(OCc2ccccc2)c1)c1cccc(OCc2ccccc2)c1` [compound 2, N-[2-(3-Benzyloxybenzamido)benzenesulfonyl]-3-benzyloxybenzamide], 172 to 173 °C. Still for that read-out and setting: with `CCCCCCCCCC(=O)NS(=O)(=O)c1ccccc1NC(=O)c1ccc([N+](=O)[O-])c(OCc2ccccc2)c1` [compound 19, N-[2-(3-benzyloxy-4-nitrobenzamido)benzenesulfonyl]decanamide] the figure was 129 to 130 °C; with `COc1ccc(C(=O)NS(=O)(=O)c2ccccc2NC(=O)c2cccc(OCc3ccccc3)c2)cc1` [compound 7, N-[2-(3-benzyloxybenzamido)benzenesulfonyl]-4-methoxybenzamide], 189 to 190 °C; with `CCCCCC(=O)NS(=O)(=O)c1ccccc1NC(=O)c1cccc(OCc2ccc(Cl)cc2)c1` [compound 22, N-[2-[3-(4-Chlorobenzyloxy)benzamido]benzenesulfonyl]hexanamide], 148 to 149 °C. Still for that read-out and setting: the result for `CCCCCCCCCC(=O)NS(=O)(=O)c1ccccc1NC(=O)c1cccc(OCc2ccccc2)c1` [compound 10, N-[2-(3-Benzyloxybenzamido)benzenesulfonyl]-decanamide] reads 85 to 86 °C; that for `CCCCCC(=O)NS(=O)(=O)c1ccccc1NC(=O)c1cccc(OCc2ccc([N+](=O)[O-])cc2)c1` [compound 26, N-[2-[3-(4-Nitrobenzyloxy)benzamido]benzenesulfonyl]hexanamide], 138 to 141 °C; that for `C/C=C/C=C/C(=O)NS(=O)(=O)c1ccccc1NC(=O)c1ccc(C#Cc2ccccc2)cc1` [compound 53, Trans-N-[2-(4-phenylethynylbenzamido)benzenesulfonyl]-2,4-hexadienamide], 208 to 209 °C. As to `CC(C)(C)C(=O)NS(=O)(=O)c1ccccc1NC(=O)c1ccc(C#Cc2ccccc2)cc1` [compound 51, N-[2-(4-Phenylethynylbenzamido)benzenesulfonyl]pivalamide], the melting point is 236 to 237 °C. Still for that read-out and setting: with `O=C(Nc1ccccc1S(=O)(=O)NC(=O)c1ccccc1)c1cccc(OCc2ccccc2)c1` [compound 3, N-[2-(3-Benzyloxybenzamido)benzenesulfonyl]-benzamide] the figure was 201 to 202 °C.

`CCCCCCCCCC(=O)NS(=O)(=O)c1ccccc1NC(=O)c1cccc(OCc2ccc(C(C)(C)C)cc2)c1` [compound 38, N-[2-[3-(4-t-Butylbenzyloxy)benzamido]benzenesulfonyl]decanamide]: the melting point lay in the range of 132 to 133 °C. Same read-out and setting: the result for `CCCCCC(=O)NS(=O)(=O)c1ccccc1NC(=O)c1cccc(OCc2ccc(OC)cc2)c1` [compound 30, N-[2-[3-(4-Methoxybenzyloxy)benzamido]benzenesulfonyl]hexanamide] reads 154 to 157 °C. As for `COc1ccc(COc2cccc(C(=O)Nc3ccccc3S(=O)(=O)NC(C)=O)c2)cc1` [compound 29, N-[2-[3-(4-Methoxybenzyloxy)benzamido]benzenesulfonyl]acetamide], the melting point lay within 114 to 117 °C. `CCCCCC(=O)NS(=O)(=O)c1ccccc1NC(=O)c1cccc(OCc2ccccc2)c1` [compound 9, N-[2-(3-Benzyloxybenzamido)benzenesulfonyl]-n-hexanamide] yielded a melting point of 133 to 134 °C. The same measure, in the same setting: the result for `O=C(NS(=O)(=O)c1ccccc1NC(=O)c1cccc(OCc2ccccc2)c1)Oc1ccccc1` reads 163 to 164 °C; that for `CCCCCCCCCC(=O)NS(=O)(=O)c1ccccc1NC(=O)c1cccc(OCc2ccc(C(F)(F)F)cc2)c1` [compound 42, N-[2-[3-(4-Trifluoromethylbenzyloxy)benzamido]benzenesulfonyl]decanamide], 164 °C; that for `CC(=O)NS(=O)(=O)c1ccccc1NC(=O)c1cccc(OCc2ccccc2)c1` [compound 4, N-[2-(3-Benzyloxybenzamido)benzenesulfonyl]acetamide], 195 to 196 °C. For the molecule `CCCCCCCCNC(=O)NS(=O)(=O)c1ccccc1NC(=O)c1cccc(OCc2ccccc2)c1`, the melting point lay in the range of 124 to 125 °C.

With `CCCCCC(=O)NS(=O)(=O)c1ccccc1NC(=O)c1cccc(OCC2CCCCC2)c1` [compound 34, N-[2-(3-cyclohexylmethoxybenzamido)benzenesulfonyl]hexanamide], the melting point was in the range of 112 to 113 °C.

For the molecule `CCCCCC(=O)NS(=O)(=O)c1ccccc1NC(=O)c1cccc(OCc2ccc(C(C)(C)C)cc2)c1` [compound 37, N-[2-[3-(4-t-Butylbenzyloxy)benzamido]benzenesulfonyl]hexanamide], the melting point was 163 to 164 °C. Still for that read-out and setting: the result for `CC(=O)NS(=O)(=O)c1ccccc1NC(=O)c1cccc(OCc2ccc([N+](=O)[O-])cc2)c1` [compound 25, N-[2-[3-(4-Nitrobenzyloxy)benzamido]benzenesulfonyl]acetamide] reads 189 to 192 °C.

`CC(C)(C)c1ccc(COc2cccc(C(=O)Nc3ccccc3S(=O)(=O)NC(=O)/C=C/c3ccccc3)c2)cc1` [compound 15, N-[2-[3-(4-t-butylbenzyloxy)benzamido]benzenesulfonyl]cinnamamide] returned a melting point of 110 to 111 °C.

The molecule `O=C(Nc1ccccc1S(=O)(=O)NC(=O)c1ccc([N+](=O)[O-])cc1)c1cccc(OCc2ccccc2)c1` [compound 6, N-[2-(3-benzyloxybenzamido)benzenesulfonyl]-4-nitrobenzamide] had a melting point of 233 to 234 °C. `O=C(Nc1ccccc1S(=O)(=O)NC(=O)c1ccc(C(F)(F)F)cc1)c1cccc(OCc2ccccc2)c1` [compound 5, N-[2-(3-Benzyloxybenzamido)benzenesulfonyl]-4-trifluoromethylbenzamide] gave a melting point of 220 to 221 °C. On the same count and under the same terms, the result for `CC(C)(C)C(=O)NS(=O)(=O)c1ccccc1NC(=O)c1cccc(OCc2ccc(C(C)(C)C)cc2)c1` [compound 14, N-[2-[3-(4-t-butylbenzyloxy)benzamido]benzenesulfonyl]pivalamide] reads 193 to 194 °C.

With `CC(=O)NS(=O)(=O)c1ccccc1NC(=O)c1cccc(OCC2CCCCC2)c1` [compound 33, N-[2-(3-Cyclohexylmethoxybenzamido)benzenesulfonyl]acetamide], the melting point is 164 to 167 °C.

As to `CCCCCCCCCC(=O)NS(=O)(=O)c1ccccc1NC(=O)c1cccc(OCc2ccc([N+](=O)[O-])cc2)c1` [compound 27, N-[2-[3-(4-nitrobenzyloxy)benzamido]benzenesulfonyl]decanamide], the melting point lay in the range of 145 to 148 °C. Same read-out and setting: the result for `CCCCCCCCCC(=O)NS(=O)(=O)c1ccccc1NC(=O)c1cccc(OCc2ccc(OC)cc2)c1` [compound 31, N-[2-[3-(4-Methoxybenzyloxy)benzamido]benzenesulfonyl]decanamide] reads 148 to 149 °C; that for `CCCCCCCCCC(=O)NS(=O)(=O)c1ccccc1NC(=O)c1ccc(C#Cc2ccccc2)cc1` [compound 50, N-[2-(4-Phenylethynylbenzamido)benzenesulfonyl]decanamide], 155 to 156 °C.
